Experimental data as given in patent US20080070942A1, “PRAZOLE DERIVATIVES AND SALTS THEREOF AND USE OF SAME” (JIANGSU HANSEN PHARMACEUTICAL CO., LTD., priority 2004, published 2008).
Marks after values point to notes of the source that are not given here.

Key:
[1] = test system: gastric acid secretion model induced by pylorus ligation in rats; assay: Effect on gastric acid secretion model induced by pylorus ligation in rats; assay type: in vivo, Wistar rat; conditions: pylorus-ligated rats, 5 hours after operation
Protocol: Wistar rat, weight 180-220 g, male, obtained from Institute of Zoology, Chinese Academy of Medical Sciences. Sodium rabeprazole, compound (II) of the present invention and tenatoprazole, provided by Jiangsu Hansen Pharmaceutical Co., Ltd. Added 1 drop of Tween-80 as a solubilizing assistant and prepared the required concentrations with distilled water. Methods: 48-hour fasting rats were divided into groups randomly. Pylon ligation was carried out under ether anaesthesia. […] The rats were sacrificed at 5 hours after the operation and the gastric juice was collected and measured. The content of HCl in gastric juice is determined by titration with 0.1 mol/L NaOH and the significance test was made by t-programme.

[2] = in vivo; conditions: dog, 5 mg/kg
Protocol: Methods: Six healthy male beagle dogs with weight 5.5˜6.7 kg were randomly divided into three groups for triple cross over administration. They were perfused with rabeprazole, tenatoprazole and compound (II) respectively after one-night fasting. The dose of each drug was 5 mg/kg. Each dog was fed with 50 ml water by gastric perfusion after administration of the drug. 2 ml blood was taken respectively from forelimb saphenous vein at 0.25, 0.5, 1, 2, 3, 4, 5, 6, 7, 8, 10, 12 hours after tenatoprazole was administered, at 5, 10, 20, 30, 40, 50, 60, 75, 90, 120, 180 minutes after rabeprazole was administered, and at 1, 2, 3, 3.5, 4, 4.5, 5, 6, 7, 8, 10, 12 hours after compound (II) was administered, and then put each blood sample in each test tube treated with EDTA, then centrifuging for 10 min at 3500 rpm. The upper plasma was removed from the test tube into another test tube containing 50 μl 2% NaOH solution and reserved at −20[…]. The plasma drug concentration was determined by HPLC. Cross-over administration to dogs was performed one week later.
The calculation method for pharmacokinetic parameters: compartment model is estimated by software DAS1.0. […] T½=0.693/λz, Tmax and Cmax are are measured values.

[3] = test system: gastric ulcer model induced by acetic acid in rats; assay: Chronic gastric ulcer model induced by acetic acid in rats; assay type: in vivo; conditions: x ± s
Protocol: Methods: Abdominal cavities of fasting rats were cut under the anaesthesia of sodium pentobarbital and gently stretched the stomachs. The glandular stomachs near pylons were injected with 20 μl 30% acetic acid and then the abdominal cavities were re-closed. At the day the operation finished, rats were randomly divided into groups and started to be administered with drugs of 10 ml/kg once a day for 10 continuous days. Rats were then sacrificed in the following day when the last drug was administered, and stomachs were taken out and were injected with 10 ml water, and then were put into 3% formaldehyde solution to be fixed for 30 minutes. The stomachs were dissected along their greater curvatures and stretched on a glass plate and the ulcer areas were measured. The significance test was made by t-programme.

[4] = test system: ulcer model induced by indomethacin in rats; assay: Gastric ulcer model induced by indomethacin in rats; assay type: in vivo, Wistar rats
Protocol: Wistar rats, weight: 180-220 g, same number of male and female, provided by Institute of Zoology, Chinese Academy of Medical Sciences. (Certification of Qualification of Animal: scxk Beijing 2000-0006) 0.5% methylcellulose sodium: 2 g/L NaHCO3 is contained and pH value is adjusted to 9.0 with NaOH. Preparation: The drug was porphyrized and diluted with 0.5% methylcellulose sodium to the required concentration. It must be used up in 30 minutes. Methods: Sixty 48-hour fasting rats were divided into six groups and gastric-perfused with different doses of compound (II), sodium rabeprazole and 0.5% methylcellulose sodium (as control), respectively. After 0.5 hour, 20 mg/kg indomethacin was injected into the abdominal cavities. Six hours later, rats were sacrificed by cervical dislocation and the stomachs were taken out. After injected with 10 ml water, stomachs were then fixed in 3% formaldehyde solution. The hemorrhagic spots were counted. A significance test was carried out by t-programme.

[5] = test system: gastric ulcer model induced by anhydrous ethanol in rats; assay: Gastric ulcer model induced by anhydrous ethanol in rats; assay type: in vivo, Wistar rat; parameters: Ulcer area: unit not given beside the values; conditions: for ulcer areas, effect in words: anhydrous ethanol ulcer
Protocol: Wistar rat, weight: 180-220 g, male, obtained from Institute of Zoology, Chinese Academy of Medical Sciences. Compound (I) and Compound (II) of the present invention and sodium rabeprazole, provided by Jiangsu Hansen Pharmaceutical Co., Ltd. The required concentration is prepared with distilled water and the volume for administration of drug is 10 ml/kg. Methods: 40-hour fasting rats were randomly divided into groups and treated with different doses of sodium rabeprazole, compound (I), compound (II) and distilled water (as control) by gastric perfusion, respectively. After 0.5 hour, each rat was administered with 1 ml anhydrous ethanol and then rats were sacrificed 1 hour later. The stomachs were taken out and injected with 10 ml fix solution. After fixed in 3% formaldehyde solution, the stomachs were dissected and the ulcer areas were measured. The significance test was made by t-programme.

[6] = test system: ulcer rat models induced by pylori ligation; assay: Ulcer model induced by pylori ligation in rats; assay type: in vivo
Protocol: Methods: Sixty 40 hour-fasting rats were divided into 6 groups according to Table 2. A pylori ligation operation was carried out under the anaesthesia of ether. […] The stomachs were dissected and the number of gastric ulcers was counted. The result was tested by a significance test of t-programme.

[7] = 6.7 μmol/kg through the duodenum
[8] = 20.0 μmol/kg through the duodenum
[9] = 20 μmol/kg once a day for 10 days
[10] = 60 μmol/kg once a day for 10 days
[11] = 3 mg/kg by gastric perfusion 0.5 hour before 1 ml anhydrous ethanol
[12] = 10 mg/kg by gastric perfusion 0.5 hour before 1 ml anhydrous ethanol

Structure (SMILES)	Amount of gastric acid [1, 7] [mmol/stomach]	Amount of gastric juice [1, 7] [ml/stomach]	Amount of gastric acid [1, 8] [mmol/stomach]	Amount of gastric juice [1, 8] [ml/stomach]	Ulcer area [3, 9] [mm^2]	Ulcer area [3, 10]	Ulcer area [5, 11]	Ulcer area [5, 12]	ulcer areas, effect in words [5]	other results
COc1ccc2[nH]c([S+]([O-])Cc3ncc(C)c(OC)c3C)nc2n1 (stereo not drawn) [Tenatoprazole, tenatoprazole]	0.16 ± 0.06	2.8 ± 0.7	0.14 ± 0.03	2.8 ± 0.5	7.6 ± 3.6	5.8 ± 3.6* mm^2	–	–	–	AUC ([2]; male, beagle, po, AUC): 18000 ng·h/mL; AUC ([2]; male, beagle, po, AUC^12): 16900 ng·h/mL; Cmax ([2]; male, beagle, po, Cmax): 4280 ng/mL; MRT ([2]; male, beagle, po, MRT): 5.4 h; half-life ([2]; male, beagle, po, T1/2): 3.74 h
COCCCOc1ccnc(C[S+]([O-])c2nc3ccccc3[nH]2)c1C (stereo not drawn) [Sodium Rabeprazole]	0.25 ± 0.10	4.0 ± 0.7	0.17 ± 0.08	3.7 ± 0.8	6.2 ± 3.5	4.8 ± 3.1** mm^2	26.4 ± 20.6	11.1 ± 2.7	reduced	No. of ulcers ([4]; 40 μmol/kg gastric perfusion, indomethacin 20 mg/kg, x ± s): 3.1 ± 4.6; Inhibition rate ([4]; 40 μmol/kg, indomethacin ulcer): 72.3%; hemorrhagic spots on gastric mucosal induced by indomethacin, effect in words ([4]; gastric perfusion): lower than that of compound (II); No. of ulcers ([6]; 40 μmol/kg through duodenum, pylori ligation, 18 hours, x ± s): 8.9 ± 14.7; Inhibition rate ([6]; 40 μmol/kg, pylori ligation ulcer): 63.2%; ulcers in the rats, effect in words ([6]; pylori ligation ulcer): essentially same function
COCCCOc1ccnc(C[S+]([O-])c2nc3ccccc3[nH]2)c1C (stereo not drawn) [rabeprazole]	–	–	–	–	–	–	–	–	–	half life [2]: less than half hour
COCCCOc1ccnc(C[S+]([O-])c2nc3cc(OC(F)F)ccc3[n-]2)c1C.[Na+] (stereo not drawn) [Compound (I)]	–	–	–	–	–	–	12.1 ± 18.1	5.5 ± 9.9	more significant effect	–
